# Data taken from patent US8772499B2, “TRPV3 modulators” (AbbVie Inc., priority 2011, dated 2014).
# pEC50, pIC50: −log10 of the molar value.
# Experiments:
# TRPV3 = TRPV3 agonist, relatively weak and nonspecific across TRPs; cited from earlier work
# human TRPV3 = molecular target: T1, human TRPV3 (Homo sapiens, UniProt Q8NET8); experiment: In vitro antagonism of recombinant human TRPV3 activation (FLIPR Tetra calcium assay); type: cell-based; conditions: HEK293 cells stably expressing human TRPV3; agonist 2-APB at 80 μM; actual measured value shown parenthetically; in most cases average of at least two runs; read-out: IC50
# T1 construct: expressed in transfected cells
# T1 sequence (Q8NET8 1-790): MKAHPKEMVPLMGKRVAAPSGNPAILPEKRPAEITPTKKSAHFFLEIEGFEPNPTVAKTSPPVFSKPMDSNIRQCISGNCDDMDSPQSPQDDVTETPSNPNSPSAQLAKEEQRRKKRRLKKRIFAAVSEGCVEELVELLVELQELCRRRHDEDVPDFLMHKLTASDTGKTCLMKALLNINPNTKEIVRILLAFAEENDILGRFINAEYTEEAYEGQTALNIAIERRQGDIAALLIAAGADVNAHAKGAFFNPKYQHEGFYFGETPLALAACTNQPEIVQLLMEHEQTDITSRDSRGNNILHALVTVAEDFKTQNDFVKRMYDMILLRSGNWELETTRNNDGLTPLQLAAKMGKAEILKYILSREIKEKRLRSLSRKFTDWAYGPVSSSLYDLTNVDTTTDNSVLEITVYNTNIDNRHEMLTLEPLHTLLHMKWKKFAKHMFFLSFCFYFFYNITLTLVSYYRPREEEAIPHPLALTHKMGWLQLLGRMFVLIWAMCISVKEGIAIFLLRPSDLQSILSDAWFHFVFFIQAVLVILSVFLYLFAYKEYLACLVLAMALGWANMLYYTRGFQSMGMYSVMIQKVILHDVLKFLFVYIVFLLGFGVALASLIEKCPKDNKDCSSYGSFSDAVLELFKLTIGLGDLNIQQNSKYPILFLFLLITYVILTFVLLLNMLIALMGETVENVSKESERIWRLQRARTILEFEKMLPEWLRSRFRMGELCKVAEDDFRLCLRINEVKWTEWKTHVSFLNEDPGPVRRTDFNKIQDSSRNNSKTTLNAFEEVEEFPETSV
# How it was run: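 HEK293 cells stably expressing human TRPV3, loaded with Calcium-4 dye for 90–120 min, received compound in DPBS, then 80 μM 2-APB (EC80) 3 min later. Max-minus-min fluorescence expressed as % of 2-APB response without antagonist; IC50 values mostly averages of n≥2 runs.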
# [1] = In vitro rat microsomal stability assay; type: in vitro ADME, rat (Sprague-Dawley); conditions: Sprague-Dawley, rat, microsomes, 0.5 h, 0.5 μM, pH 7.4
# How it was run: (§1)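 Metabolic stability measured in Sprague-Dawley rat or human liver microsomes at 37 °C. Reactions supplemented with NADPH.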
# [2] = In vitro human microsomal stability assay; type: in vitro ADME; conditions: human, microsomes, 0.5 h, 0.5 μM, pH 7.4
# How it was run: as §1
# [3] = test system: chronic constriction injury (CCI) model of neuropathic pain; experiment: In vivo chronic constriction injury (CCI) model of neuropathic pain, mechanical allodynia (von Frey); parameters: species or system CD1 mice; conditions: Mus musculus, po, 1 h, 100 mg/kg oral dose, mechanical allodynia 1 hour after dosing, CCI mice, average of eight mice; vehicle 0%, control 100%; read-out: % EFFECT
# Procedure: Test compounds were evaluated for analgesic effect in an in vivo chronic constriction injury (CCI) model of neuropathic pain. CD1 mice (Charles River) were used for these studies. Prior to testing (2-4 weeks) animals underwent a surgical procedure consisting of approximately 3 loose ligatures around the sciatic nerve. Following sterilization procedures, under isofluorane anesthetic, a 1.5 cm incision was made dorsal to the pelvis. The biceps femoris and gluteous superficialis (right side) were separated and the sciatic nerve exposed, isolated, and 2-4 loose ligatures (5-0 chromic gut) with less than 1 mm spacing were placed around it. Following hemostasis, the wound was sutured (layer of muscle closed with 5-0 nylon suture, and the wound closed with surgical staples) and coated with iodine. The mice were allowed to recover on a warming plate and were returned to their home cages (soft bedding) when able to walk on their own.
# Two to four weeks after the surgery, test compound was administered orally (PO) in these mice, and mechanical allodynia was evaluated 1 hour after oral dosing where the threshold to response was assessed using calibrated von Frey monofilaments. The von Frey monofilaments were applied to the hind paw at increasing forces until the animal responded by lifting its paw. Normally, the force of the von Frey monofilament was innocuous and only in the altered state (allodynia or hyperalgesia) did the animals respond to this stimulation. […] At the end of the experiment, after behavioral testing, plasma (and in some instances brain tissue) was taken for exposure analysis.
# Each test compound was evaluated in eight different mice. The data reported in Table 3 represent the average value of the approximate percent effect of each compound in relieving neuropathic pain in mice receiving 100 mg/kg oral dose of the test compound. The grams of force needed to elicit a withdrawal response from the injured mouse that was challenged with vehicle was assigned a 0% effect, while the grams of force needed to elicit a withdrawal response from the control was given a 100% effect.
pIC50 (human TRPV3),RAT MICROSOMAL STABILITY (% REMAINING AFTER 30 MINUTES) [1] [%],HUMAN MICROSOMAL STABILITY (% REMAINING AFTER 30 MINUTES) [2] [%],Compound,pEC50 (TRPV3),inhibition in vivo at 100 mg/kg [3] [%]
,,,"c1ccc(B(OB(c2ccccc2)c2ccccc2)c2ccccc2)cc1 [DPBA, diphenylboronic anhydride]",~4.40,
,,,"NCCOB(c1ccccc1)c1ccccc1 [Example 2-APB, 2-aminoethoxydiphenylborate]",~4.40,
6.16,>85,>85,"OC1CC(c2cc(C(F)(F)F)ccn2)(C(O)c2ccccn2)C1 [Example 283, trans-3-[(S)-hydroxy(pyridin-2-yl)methyl]-3-[4-(trifluoromethyl)pyridin-2-yl]cyclobutanol]",,49
6.07,72,78,"CC1(O)CC(c2ccc(OC(F)(F)F)cc2)(C(O)c2ccccn2)C1 (single isomer, unassigned) [Example 134]",,98
5.22,>85,73,"OC1CC(c2ccc(C(F)(F)F)cc2)(C(O)c2ccccn2)C1 [Example 201, trans-3-[(S)-hydroxy(pyridin-2-yl)methyl]-3-[4-(trifluoromethyl)phenyl]-cyclobutanol]",,64
